Test system: Nrf2-ARE-mediated transcription
Assay: ARE Reporter - HepG2 cell line luciferase assay
Format: cell-based, human
Conditions: ARE reporter HepG2 cells, TZ 1 μM, ELA 3 μM, 18 h exposure, significant = fold induction over DMSO above 2 and p<0.05
Method: The ARE Reporter—Hep G2 cell line is designed to monitor Nrf2 antioxidant response pathway. The cell contains a firefly luciferase gene under the control of ARE (antioxidant response element) stably integrated into Hep G2 cells.
ARE reporter—HepG2 cells (BPS Bioscience, Inc., San Diego, cat #60513) were cultured following manufacturer's instructions. After thawing (BPS thaw medium 1K, cat #60187), cells were cultured in growth-medium (BPS growth medium 1K, cat #79533) and subsequently plated at a density of 40 000 cells per well in a 96-well microplate in 45 μL of assay medium (BPS thaw medium). TZ, ELA and DL-Sulforaphane (Sigma cat #S4441) were dissolved in DMSO and diluted into assay medium. 5 μl of dilution were added on cells to reach a final concentration of 1 μM for TZ and 3 μM for ELA. DL-Sulforaphane was used as a positive control at the dose of 3 μM. After 18 h exposure, luciferase activity was determined. 50 μL of One-Step Luciferase assay system (BPS cat #60690) were added per well and after ~15 min of rocking at room temperature, luminescence was measured using a luminometer.
Fold induction over DMSO above 2 and with a p-value <0.05 was considered as significant.

## O=C(Nc1ncc([N+](=O)[O-])s1)c1ccccc1O [TZ]
  activation of Nrf2-antioxidant pathway compared to the untreated condition: induces a significant activation

Source: US12678427B2, “Combination therapy having antioxydant properties” (GENFIT, priority 2019, dated 2026)
